In patent US5556849A, “Ruthenium containing phthalocyanin photosensitizers” (priority 1991, dated 1996):

Tests used:
[1] = test system: Adherent cells (HeLa RCA. SKOV OVCAR); assay: Phototoxicity (Light): 3H-thymidine incorporation in adherent cells after irradiation, with dark cytotoxicity for PI; format: cell-based; conditions: for PI (phototoxicity index): ratio of PC50 to cytotoxic concentration 50% (no light); for IC50 / PC50 (phototoxic concentration 50%): with light dose, 50% reduction in cancer cell growth vs untreated control, 24 h incubation with sensitizer; for IC50: read-out: PC50 (phototoxic concentration 50%)
Method: The media is removed and the cells washed three times with D-PBS. and then covered with D-PBS (200 μl ) and exposed to light from the same source used in the singlet oxygen assay.
This follows the procedure for phototoxicity except that the cells are never exposed to light. The assay is relative to a non-treated control.
(§1) Compounds according to the invention were assessed and characterised by their light absorption maxima, and their molar extinction coefficients according to conventional test procedures. Most of the compound were tested for their biological activity according to conventional test procedures in the art. The PC50 represents phototoxic concentration 50%. which is the concentration of compound when exposed to a light dose as described herein, causes a 50% reduction in cancer cell growth vs an untreated control population. The phototoxicity index. PI, is the ratio of the PC50 to the cytotoxic concentration 50%. where the growth is reduced by 50% without a light dose being given.
PC50 is determined by a relatively simple in vitro assay on a cellular level, which is generally indicative of photosensitizing activity.

[2] = Light absorption maxima and molar extinction coefficients; format: physicochemical
Method: as §1

O=S(=O)([O-])c1cccc(P(c2ccccc2)c2ccccc2)c1.O=S(=O)([O-])c1cccc(P(c2ccccc2)c2ccccc2)c1.[K+].[K+].c1ccc2cc3c(cc2c1)C1=NC2=NC(=Nc4c5cc6ccccc6cc5c5[n]4[Ru][n]4c(c6cc7ccccc7cc6c4=N5)=NC3=N1)c1cc3ccccc3cc12 [RuNc(TPPMS)2]
PI (phototoxicity index) [1]: 1.6
IC50 [1]: 2700 nM
ε (molar extinction coefficient) [2]: 54000 M⁻¹ cm⁻¹
λmax Q ([2]; in water (W)): 734

O.O.O.O.O=S(=O)([O-])CCc1cc[n+]([Ru-2]2([n+]3ccc(CCS(=O)(=O)[O-])cc3)[n]3c4c5ccccc5c3N=C3N=C(N=c5c6ccccc6c([n]52)=NC2=NC(=N4)c4ccccc42)c2ccccc23)cc1.[K+].[K+] [RuPc(PES)2 (Ex 2), K2 [Ru(Pc)bis(4-pyridineethanesulfonate)]tetrahydrate]
PI (phototoxicity index) [1]: 1
PC50 (phototoxic concentration 50%) [1]: Inactive
ε (molar extinction coefficient) [2]: 72500 M⁻¹ cm⁻¹
λmax Q ([2]; in water (W)): 632

O=S(=O)([O-])c1cccc(P(c2ccccc2)c2ccccc2)c1.O=S(=O)([O-])c1cccc(P(c2ccccc2)c2ccccc2)c1.[K+].[K+].c1ccc2c(c1)C1=NC3=NC(=Nc4c5ccccc5c5[n]4[Ru][n]4c(c6ccccc6c4=N5)=NC2=N1)c1ccccc13 [RuPc(TPPMS)2]
ε (molar extinction coefficient) [2]: 90300 M⁻¹ cm⁻¹
λmax Q ([2]; in water (W)): 652

O=S(=O)([O-])c1cccnc1.O=S(=O)([O-])c1cccnc1.[Na+].[Na+].c1ccc2c(c1)C1=NC2=Nc2c3ccccc3c3[n]2[Ru][n]2c(c4ccccc4c2=NC2=NC(=N3)c3ccccc32)=N1 [RuPc(3PS)2]
PI (phototoxicity index) [1]: > 109
IC50 [1]: 929 nM
ε (molar extinction coefficient) [2]: 736000 M⁻¹ cm⁻¹
λmax Q ([2]; in water (W)): 630

O=S(=O)([O-])c1ccc[n+]([Ru-2]2([n+]3cccc(S(=O)(=O)[O-])c3)[n]3c4c5cc6ccccc6cc5c3N=C3N=C(N=c5c6cc7ccccc7cc6c([n]52)=NC2=NC(=N4)c4cc5ccccc5cc42)c2cc4ccccc4cc23)c1.[Na+].[Na+] [RuNc(3PS)2]
PI (phototoxicity index) [1]: 32.6
ε (molar extinction coefficient) [2]: 83000 M⁻¹ cm⁻¹
λmax Q ([2]; in water (W)): 730

N#Cc1cccc(C(=O)O)c1.N#Cc1cccc(C(=O)O)c1.c1ccc2c(c1)C1=NC3=NC(=Nc4c5ccccc5c5[n]4[Ru][n]4c(c6ccccc6c4=N5)=NC2=N1)c1ccccc13 [RuPc(CBA)2]
PI (phototoxicity index) [1]: 10.2
IC50 [1]: 420 nM
ε (molar extinction coefficient) [2]: 97600 M⁻¹ cm⁻¹
λmax Q ([2]; in water (W)): 650

O=C(O)c1ccncc1C(=O)O.O=C(O)c1ccncc1C(=O)O.c1ccc2c(c1)C1=NC2=Nc2c3ccccc3c3[n]2[Ru][n]2c(c4ccccc4c2=NC2=NC(=N3)c3ccccc32)=N1 [RuPc(34PDCA)2]
PI (phototoxicity index) [1]: 47.6
IC50 [1]: 2100 nM
ε (molar extinction coefficient) [2]: 58800 M⁻¹ cm⁻¹
λmax Q ([2]; in water (W)): 630

O=S(=O)(O)c1ccc[n+]([Ru-2]2([n+]3cccc(S(=O)(=O)O)c3)[n]3c4c5cc6ccccc6cc5c3N=C3N=C(N=c5c6cc7ccccc7cc6c([n]52)=NC2=NC(=N4)c4cc5ccccc5cc42)c2cc4ccccc4cc23)c1.[Na+].[Na+] [RuNc(3PS)2]
IC50 [1]: 460 nM

NCCC(=O)[O-].NCCC(=O)[O-].[K+].[K+].c1ccc2c(c1)C1=NC3=NC(=Nc4c5ccccc5c5[n]4[Ru][n]4c(c6ccccc6c4=N5)=NC2=N1)c1ccccc13 [RuPc(β-ALA)2]
IC50 [1]: 1900 nM
ε (molar extinction coefficient) [2]: 105000 M⁻¹ cm⁻¹

NCCS(=O)(=O)[O-].NCCS(=O)(=O)[O-].O.O.O.O.O.O.[Na+].[Na+].c1ccc2c(c1)C1=NC3=NC(=Nc4c5ccccc5c5[n]4[Ru][n]4c(c6ccccc6c4=N5)=NC2=N1)c1ccccc13 [RuPc(Tau)2 (Ex 3), Na2 [Ru(Pc)bis(taurine)]hexahydrate]
PI (phototoxicity index) [1]: > 1.1
IC50 [1]: 9000 nM
ε (molar extinction coefficient) [2]: 79800 M⁻¹ cm⁻¹
λmax Q ([2]; in methanol (M)): 623
λmax Q ([2]; in water (W)): 634

O=C(O)c1cccnc1.O=C(O)c1cccnc1.c1ccc2cc3c(cc2c1)C1=NC3=Nc2c3cc4ccccc4cc3c3[n]2[Ru][n]2c(c4cc5ccccc5cc4c2=NC2=NC(=N3)c3cc4ccccc4cc32)=N1 [RuNc(Nic)2]
PI (phototoxicity index) [1]: 22.2
IC50 [1]: 105 nM
ε (molar extinction coefficient) [2]: 169000 M⁻¹ cm⁻¹
λmax Q ([2]; in water (W)): 762

NCCC(=O)[O-].NCCC(=O)[O-].[K+].[K+].c1ccc2cc3c(cc2c1)C1=NC2=NC(=Nc4c5cc6ccccc6cc5c5[n]4[Ru][n]4c(c6cc7ccccc7cc6c4=N5)=NC3=N1)c1cc3ccccc3cc12 [RuNc(β-ALA)2]
PI (phototoxicity index) [1]: 1.51
IC50 [1]: 960 nM
ε (molar extinction coefficient) [2]: 36500 M⁻¹ cm⁻¹
λmax Q ([2]; in water (W)): 730

Fc1c(F)c(F)c2c(c1F)C1=NC2=Nc2c3c(F)c(F)c(F)c(F)c3c3[n]2[Ru][n]2c(c4c(F)c(F)c(F)c(F)c4c2=NC2=NC(=N3)c3c(F)c(F)c(F)c(F)c32)=N1.O=C(O)c1cccnc1.O=C(O)c1cccnc1 [RuF16 Pc(Nic)2]
PC50 (phototoxic concentration 50%) [1]: Inactive
ε (molar extinction coefficient) [2]: 55700 M⁻¹ cm⁻¹

O=C([O-])c1cccc(P(c2ccccc2)c2ccccc2)c1.[Na+].c1ccc2c(c1)C1=NC2=Nc2c3ccccc3c3[n]2[Ru][n]2c(c4ccccc4c2=NC2=NC(=N3)c3ccccc32)=N1.c1ccncc1 [RuPc(py)(TPPMC)]
ε (molar extinction coefficient) [2]: 54600 M⁻¹ cm⁻¹
λmax Q ([2]; in water (W)): 644

O=S(=O)([O-])c1cccc(P(c2cccc(S(=O)(=O)[O-])c2)c2cccc(S(=O)(=O)[O-])c2)c1.O=S(=O)([O-])c1cccc(P(c2cccc(S(=O)(=O)[O-])c2)c2cccc(S(=O)(=O)[O-])c2)c1.[Na+].[Na+].[Na+].[Na+].[Na+].[Na+].c1ccc2cc3c(cc2c1)C1=NC2=NC(=Nc4c5cc6ccccc6cc5c5[n]4[Ru][n]4c(c6cc7ccccc7cc6c4=N5)=NC3=N1)c1cc3ccccc3cc12 [RuNc(TPPTS)2]
IC50 [1]: > 100000 nM
λmax Q ([2]; in water (W)): 720

O=C(O)c1cncc(C(=O)O)c1.O=C(O)c1cncc(C(=O)O)c1.c1ccc2c(c1)C1=NC2=Nc2c3ccccc3c3[n]2[Ru][n]2c(c4ccccc4c2=NC2=NC(=N3)c3ccccc32)=N1 [RuPc(35PDCA)2]
PI (phototoxicity index) [1]: > 5.6
IC50 [1]: 18000 nM
ε (molar extinction coefficient) [2]: 48400 M⁻¹ cm⁻¹
λmax Q ([2]; in water (W)): 632

O=C(O)c1cccnc1.O=C(O)c1cccnc1.c1cnc2c(n1)C1=NC2=Nc2c3nccnc3c3[n]2[Ru][n]2c(c4nccnc4c2=NC2=NC(=N3)c3nccnc32)=N1 [RupyrPc(Nic)2]
PI (phototoxicity index) [1]: 1
PC50 (phototoxic concentration 50%) [1]: Inactive
ε (molar extinction coefficient) [2]: 45100 M⁻¹ cm⁻¹
λmax Q ([2]; in water (W)): 625

Cc1cc2c(cc1C)C1=Nc3c4cc(C)c(C)cc4c4[n]3[Ru][n]3c(c5cc(C)c(C)cc5c3=NC3=NC(=N4)c4cc(C)c(C)cc43)=NC2=N1.O=C(O)c1cncc(C(=O)O)c1.O=C(O)c1cncc(C(=O)O)c1 [Ru(oMe)8 Pc(35PDCA2)]
PI (phototoxicity index) [1]: 1
PC50 (phototoxic concentration 50%) [1]: Inactive
ε (molar extinction coefficient) [2]: 63300 M⁻¹ cm⁻¹
λmax Q ([2]; in water (W)): 641

Nc1ccc(O)c(C(=O)O)c1.Nc1ccc(O)c(C(=O)O)c1.c1ccc2c(c1)C1=NC3=NC(=Nc4c5ccccc5c5[n]4[Ru][n]4c(c6ccccc6c4=N5)=NC2=N1)c1ccccc13 [RuPc(5AS)2]
IC50 [1]: 2000 nM
ε (molar extinction coefficient) [2]: 66500 M⁻¹ cm⁻¹

Nc1cccc(C(=O)O)c1.Nc1cccc(C(=O)O)c1.c1ccc2c(c1)C1=NC3=NC(=Nc4c5ccccc5c5[n]4[Ru][n]4c(c6ccccc6c4=N5)=NC2=N1)c1ccccc13 [RuPc(ABA)2]
PI (phototoxicity index) [1]: 8.8
IC50 [1]: 3500 nM
ε (molar extinction coefficient) [2]: 72500 M⁻¹ cm⁻¹
λmax Q ([2]; in water (W)): 638

O=C(O)c1cccnc1.O=C(O)c1cccnc1.c1ccc2c(c1)C1=NC2=Nc2c3ccccc3c3[n]2[Ru][n]2c(c4ccccc4c2=NC2=NC(=N3)c3ccccc32)=N1 [RuPc(Nic)2]
PI (phototoxicity index) [1]: > 79
IC50 [1]: 1260 nM
ε (molar extinction coefficient) [2]: 648000 M⁻¹ cm⁻¹
λmax Q ([2]; in water (W)): 630

O=S(=O)([O-])c1cccc(P(c2cccc(S(=O)(=O)[O-])c2)c2cccc(S(=O)(=O)[O-])c2)c1.O=S(=O)([O-])c1cccc(P(c2cccc(S(=O)(=O)[O-])c2)c2cccc(S(=O)(=O)[O-])c2)c1.[Na+].[Na+].[Na+].[Na+].[Na+].[Na+].c1ccc2c(c1)C1=NC3=NC(=Nc4c5ccccc5c5[n]4[Ru][n]4c(c6ccccc6c4=N5)=NC2=N1)c1ccccc13 [RuPc(TPPTS)2]
PI (phototoxicity index) [1]: > 15
IC50 [1]: 11300 nM
ε (molar extinction coefficient) [2]: 87400 M⁻¹ cm⁻¹
λmax Q ([2]; in water (W)): 650
